In patent US20250319136A1, “METHOD FOR PREPARING OLIGOD[…] USE” (Shenzhen ExoNeuglia Biomedical Technology Co., Ltd., priority 2022, published 2025):

Columns and labels:
hiPSC-derived NSCs [1] = assay: OLIG2 immunostaining of hiPSC-derived NSCs at D12; format: cell-based, human; details: for effect on WIN-induced upregulation of OLIG2+ cells: co-treatment with WIN, D12
Method: (§1) In order to generate PAX6+/NESTIN+/SOX2+NSC, the dual SMAD neural induction method was used. hiPSCs with a density of ˜80% with neural induction medium (NIM) were treated from day 0 (DO) to day 7, and the medium was changed every day. Starting from D8, the medium was changed daily to fresh N2 medium containing RA (100 nM), purine amine (PUR, 1 μM) and WIN (1 μM). Starting from D12, cells were manually isolated and suspended in the ultra-low attachment plate in N2B27 medium containing RA (100 nM), PUR (1 μM) and WIN (1 μM), and the medium was changed every other day. Starting from D20, the spheroids were further suspended in PDGF-AA medium for culture. At D30, expanded spheroids were seeded on Matrigel-coated plates or Petri dishes with low growth factors in the glial differentiation medium (GDM).
(§2) The identification of cell markers in the present invention uses an immunofluorescence staining method, wherein cells (NSCs, OPCs and OLs) at different culture stages were cultured on confocal Petri dishes coated with Matrigel or Matrigel with reduced growth factors, washed three times with pre-cooled PBS, and fixed with 4% paraformaldehyde (PFA) at room temperature for 15 minutes. The fixed samples were then washed three times, permeabilized and blocked with blocking solution containing 0.5% triton X-100 and 2% bovine serum albumin (BSA) for 30 min at room temperature. The diluted primary antibodies listed in Table S2 were applied to cover the cells overnight at 4° C. The next day, the corresponding secondary antibodies (listed in Table S3) were added for staining in the dark for 60 min at room temperature after washing. DAPI containing anti-fluorescence quencher was then added to the culture dish for nuclear staining. Images were taken using a confocal microscope (Zeiss, LSM880) or an inverted microscope (Nikon, Eclipse Ti2-U).

hiPSC-derived OPCs/OLs = assay: qRT-PCR relative mRNA expression in differentiating cells; format: cell-based, human
From the text: The present invention uses qRT-PCR to calculate the relative mRNA expression fold changes. The specific method is as follows: according to the manufacturer's instructions, the RNA rapid purification kit (ES science, Shanghai, China) was used to collect and purify the total RNA of cells and spinal cord tissue. After quantifying the RNA concentration with NANODROP ONE (Thermo Fisher Scientific, USA),
EasyScript® Integrated first-line cDNA synthesis Supermix and T100TM thermal cycler (BIO-RAD) was used for […] (one-step gDNA removal), and then PerfectStart Green qPCR SiperMix (TRNAS, China) and LightCycler® 96 (Roche) were used for quantification by qRT-PCR. All processes were performed according to the manufacturer's instructions. 2-AACt method was used to calculate the relative mRNA expression fold changes.

D30 cells = assay: RNA SEQ on D30 cells; format: cell-based, human
Method: Total RNA was extracted using RNA rapid purification kit (ES science, Shanghai, China) according to the manufacturer's instructions. RNA library sequencing was performed on an Illumina HiseqTM 2500/4000 by Gene Denovo Biotechnology Co.,
Ltd. (Guangzhou, China). Bioinformatics analysis was performed using Omicsmart, which is a real-time interactive online platform for data analysis (http://www.omicsmart.com).

O4+ OPCs = assay: Nanofiber myelination assay; format: cell-based, human; details: after 2 weeks of culture
Method: O4+ OPC isolation was performed according to the manufacturer's instructions using MACS based on anti-O4 microbeads (MiltenyiBiotec, Germany). A single cell suspension was prepared by digesting cells with pre warmed Accutase at 37° C. for 30 min at day 44. After digestion, the cell mixture was diluted with pre-cooled DMEM/F12 and centrifuged at 300 g for 5 min at room temperature. The cells were then resuspended in DMEM/F12 and filtered through […] cell filter, and cells were collected by centrifugation at 300 g for 5 min at room temperature. After mixing evenly, the cell mixture was incubated in a refrigerator for 15 min. Then 1 mL of cold MACS buffer was added and centrifuged at 300 g for 10 min. The cell pellet was resuspended in 500 μL cold MACS buffer and mixed well. Afterwards, the cell mixture was added to the MS column and pre-rinsed using 500 μL cold MACS buffer in the magnetic field of a suitable MACS separator, and the column was washed three times with 500 μL buffer. Unlabeled cells were collected from the effluent. When the column reservoir was empty, the column was placed on a 15 mL collection tube and rinse with 1 mL buffer. Magnetically labeled cells were collected from the effluent by firmly pushing the plunger into the column. The eluted O4+ rich cells were then centrifuged at 300 g for 5 min and resuspended in 1 mL GDM. […]

NSC = assay: Effect of WIN concentration series on NSC growth; format: cell-based, human; details: 1 μM WIN
hiPSC-derived OPCs [2] = assay: OPC marker immunofluorescence and flow cytometry at D34; format: cell-based, human; details: D34, n=3
Method: as §2
Taking flow cytometry based on anti-O4-APC antibody as an example, 2 μL antibody was added to a 98 μL of single cell suspension containing 1×10^6 cells and cell staining buffer, mixed well and incubated for 10 min in the dark in a refrigerator. After incubation, cells were washed and dried. […]

[3] = system: rat neuropathic pain models; details: cited from earlier work
hiPSC-derived OPCs [4] = assay: Scratch assay, single-cell migration; format: cell-based, human; details: at 48h, n=3
Method: In the scratch assay, 34-day-old cells were digested with pre-warmed accutase and filtered through […] cell filter to produce a single-cell suspension. After centrifugation, these single cells were seeded on a 24-well plate coated with Matrigel with reduced growth factor at the density of 2×10^6/mL and cultured with GDM. When the cell confluence reached 70-80%, a scratch was formed on the cell using 10 μL the pipette tip. After washing with DPB, fresh GDM was added to the wells. Cell images were collected at 0, 12, 24, 36, 48, 60, and 72 h using an inverted microscope. All images were measured and analyzed by Image J (i.e., software image J).

hiPSC-derived OPCs [5] = assay: In vitro maturation of OPCs to OLs (O4, GALC, MBP; immunofluorescence and flow cytometry); format: cell-based, human
Method: as §2
Taking flow cytometry based on anti-O4-APC antibody as an example, 2 μL antibody was added to a 98 μL of single cell suspension containing 1×10^6 cells and cell staining buffer, mixed well and incubated for 10 min in the dark in a refrigerator. After incubation, cells were washed and dried. The cell pellet was then resuspended in an appropriate amount of buffer and filtered through […] cell filter prior to analysis. Flow cytometry was performed on a CytoFLEX cytometer (Beckman, USA).

[6] = system: hiPSC-derived cell spheres; assay: Cell migration out of spheroids; format: cell-based, human; details: after 36 hours, n=40
Method: In order to test the migration ability, the inventor carried out experiments on two dimensions of spheroid and single-cell state. First, the inventors have observed the ability of cells in the control and WIN groups to migrate out of the spheroids. Selected spheroids of the same size at day 30 from the control and WIN groups were seeded on 6-well plates coated with Matrigel with reduced growth factor in GDM medium. After 4, 12, 24, and 36 h, cell spheres and migrated cells were observed and imaged under an inverted microscope.

hiPSC-derived NSCs [7] = assay: Number of OLIG2+ spheroids in suspension culture at D20; format: cell-based, human; details: D20, n=3
Method: as §1

| SMILES | effect on WIN-induced upregulation of OLIG2+ cells (hiPSC-derived NSCs [1]) | mRNA expression level of PDGFR a compared with control group (hiPSC-derived OPCs/OLs; D30, n=3, P<0.01) | mRNA expression of GALC (hiPSC-derived OPCs/OLs; D55) | mRNA expression of MBP (hiPSC-derived OPCs/OLs; D55) | mRNA expression of PLP1 (hiPSC-derived OPCs/OLs; D55) | genes down-regulated compared with control group (D30 cells) [genes] | genes up-regulated compared with control group (D30 cells) [genes] | area of nanofibers covered by MBP compared with control group (O4+ OPCs) | number of MBP+ OLs on nanofibers compared with control group (O4+ OPCs) | side effects on the growth of NSC (NSC) | cells expressing PDGFR α (hiPSC-derived OPCs [2]) | OLIG2-positive (OLIG2+) cells (hiPSC-derived NSCs [1]; 1 μM WIN, D12, n=3) [%] | analgesic activity [3] | migration rate in scratch experiment (hiPSC-derived OPCs [4]) [%] | percentage of O4+ cells (hiPSC-derived OPCs [5]; D44, n=4) [%] | cells expressing immature OL marker GALC (hiPSC-derived OPCs [5]; D55, n=3) [%] | percentage of mature OLs co-expressing O4 and MBP (hiPSC-derived OPCs [5]; D66, n=3) [%] | average migration distance of cells from cell spheres [6] [μm] | OLIG2+ spheroids relative to control group (hiPSC-derived NSCs [7]) [times] |
| --- | --- | --- | --- | --- | --- | --- | --- | --- | --- | --- | --- | --- | --- | --- | --- | --- | --- | --- | --- |
| COc1ccc(C(=O)c2c(C)n(CCN3CCOCC3)c3cc(I)ccc23)cc1 [AM630] | significantly inhibited | – | – | – | – | – | – | – | – | – | – | – | – | – | – | – | – | – | – |
| Cc1c(C(=O)c2cccc3ccccc23)c2cccc3c2n1[C@H](CN1CCOCC1)CO3 [WIN, WIN55212-2] | – | up-regulated | up-regulated | up-regulated | up-regulated | 98 | 983 | significantly increased | significantly increased | no side effects on the growth of NSC | more than 95.4±2.2% | 95.4±0.2 | potent analgesic | 44.5±1.0 | 42.4±2.1 | 86.2±5.3 | 37.2±2.9 | 203.7±6.3 | 1.7 ±0.1 |
| Cc1c(C(=O)NN2CCCCC2)nn(-c2ccc(Cl)cc2Cl)c1-c1ccc(Cl)cc1 [rimonabant, Rimonabant] | significantly inhibited | – | – | – | – | – | – | – | – | – | – | – | – | – | – | – | – | – | – |
